Experimental data published in patent US10532064B2, “Biophosphonate compounds and gamma delta T cell-mediated therapy for treating epstein-barr virus-associated disorders” (priority 2014, dated 2020).

Assays:
[1] = tested on: cytolytic activities of Vγ9Vδ2-T cells against EBV-LCL; test: Blocking of Vγ9Vδ2-T cell cytotoxicity against EBV-LCL by inhibitors and neutralizing antibodies; format: cell-based, human; settings: E:T 10:1; antibodies 10 μg/ml, CMA and Bcl-2 1 μg/ml
Experimental: FIG. 1A: Phenotypes of EBV-LCL and autologous normal human B cells. The white histograms represent MICA/B, Fas, FasL DR4 and DR5, and the gray histograms represent isotype controls. […] FIG. 1C, 1D, 1G: PAM-expanded Vγ9Vδ2 T cells purified by positive selection were co-cultured with autologous EBV-LCL or normal B cells at different E:T ratios (FIG. 1C) or an E:T ratio of 10:1 (FIGS. 1D and 1G) for 4-6 hours. FIG. 1D: The Vγ9Vδ2 T cells were directly co-cultured with or physically separated from autologous EBV-LCLs for 6 hours by using a transwell system. […] FIG. 1G: The perforin inhibitor CMA, granzyme B inactivator Bcl-2, anti-NKG2D (αNKG2D), anti-TRAIL (αTRAIL) and anti-FasL (αFasL) blocking antibodies, or their relevant isotype control (mouse IgG1, mIgG1) were used in co-culture of EBV-LCL and their autologous PAM-expanded Vγ9Vδ2 T cells. The cytotoxicity was shown as the percentage of inhibition relative to those without any treatment. All the data shown as mean±SEM are representative of four independent experiments. *p<0.05.

[2] = tested on: EBV-LPD; test: Control of EBV-LPD by pamidronate in humanized mice (whole huPBMC); format: in vivo
Experimental: FIG. 8A: Protocol for the control of EBV-LPD by pamidronate (PAM) in humanized mice. Humanized mice were treated with PAM or PBS at day 0, 7, 14, 21, 28 after inoculation of EBV-LCL. FIG. 8B-8D: After treatment with PAM (n=8) or PBS (n=7), the survival (FIG. 8B), tumor incidence (FIG. 8C) and tumor volume (FIG. 8D) were measured at the indicated time.
(§1) Vγ9Vδ2-T-cell-depleted huPBMC were obtained after double depletions of […] by positive selection with magnetic microbeads. Rag2^−/−γc^−/− mice were transplanted with whole huPBMC or Vγ9Vδ2-T-cell-depleted huPBMC from the same healthy human donor. […] Humanized mice reconstituted with whole huPBMC (PBMC) or Vγ9Vδ2-T-cell-depleted huPBMC (PBMC-γδ-T) were inoculated with EBV-LCL and treated with pamidronate or PBS according to the protocol shown in FIG. 8A. The survival (FIG. 9A), tumor incidence (FIG. 9B) and tumor volume (FIG. 9C) in humanized mice (PBMC+PAM, n=12; PBMC-γδ-T+PAM, n=7; PBMC-γδ-T+PBS, n=6) are shown.
All animal studies were approved and performed in compliance with the guidelines for the use of experimental animals by the Committee on the Use of Live Animals in the Teaching and Research, the University of Hong Kong. Humanized mice were generated in 4-5 weeks old male or female Rag2^−/−γc^−/− mice by reconstitution of EBV seropositive whole huPBMC or Vγ9Vδ2-T-cell-depleted huPBMC as we described before (Tu et al., 2011). […] Humanized mice or 6-8 week old Rag2^−/−γc^−/− mice were inoculated s.c. with EBV-LCL or EGFP-expressing EBV-LCL (0.1×10^6/mouse). […] For humanized mice, a human equivalent dose of PAM (10 mg/kg body weight; Pamisol; Hospira Austrilia Pty Led) was injected i.p. at indicated time. The mice treated with an equivalent volume of PBS were used as controls. The signs of disease (loss of activity, weight loss, ruffled hair, palpable tumors, and ascites) and survival of mice were monitored. Mice with more than 17 mm of diameter subcutaneous tumor were sacrificed and counted as dying. Otherwise, mice were followed for 100 or 170 days and then killed. All mice were examined for postmortem evidence of tumor. The tumors and organs were collected for histology and immunohistochemistry assays.
After inoculation with EBV-LCL (1×10^5/mouse) s.c., humanized mice were injected intraperitoneally (i.p.) with pamidronate (10 mg/kg body weight) at day 0, 7, 14, 21 and 28 post EBV-LCL inoculation (FIG. 8A). PBS-treated mice were used as controls.
Mice reconstituted with whole huPBMC or Vγ9Vδ2-T-cell-depleted huPBMC were inoculated with EBV-LCLs s.c. and injected with pamidronate (10 mg/kg body weight) i.p. at day 0, 7, 14, 21 and 28 post EBV-LCL inoculation.

[3] = tested on: Vγ9Vδ2-T cells; test: Expansion of Vγ9Vδ2-T cells from huPBMC in vitro with PAM and IL-2; format: cell-based, human
Experimental: The data are representative of 4 independent experiments. […] Data are representative of 4 independent experiments. […] Data are representative of 4 independent experiments.
Briefly, huPBMC were cultured in RPMI 1640 medium supplemented with 10% FBS. Pamidronate was added at day 0 and day 3 to a final concentration 9 μg/ml.
Human PBMCs were isolated from buffy coat preparation or anticoagulated peripheral blood by Ficoll-paque (GE Health life Science) gradient centrifugation. The PBMCs were cultured in 10% FBS-RPMI1640 supplemented with 15 ul of expansion reagent A; 25 ul of expansion reagent B was added from day 3 post culture. […] Data are representative for 4 independent experiments.

[4] = tested on: EBV-LPD; test: Pamidronate in humanized mice reconstituted with Vγ9Vδ2-T-cell-depleted huPBMC; format: in vivo; settings: 10 mg/kg i.p. day 0, 7, 14, 21, 28
Text: as §1
All animal studies were approved and performed in compliance with the guidelines for the use of experimental animals by the Committee on the Use of Live Animals in the Teaching and Research, the University of Hong Kong. Humanized mice were generated in 4-5 weeks old male or female Rag2^−/−γc^−/− mice by reconstitution of EBV seropositive whole huPBMC or Vγ9Vδ2-T-cell-depleted huPBMC as we described before (Tu et al., 2011). […] The signs of disease (loss of activity, weight loss, ruffled hair, palpable tumors, and ascites) and survival of mice were monitored. Mice with more than 17 mm of diameter subcutaneous tumor were sacrificed and counted as dying. […]

[5] = Example 5, vs PBS-treated humanized mice
[6] = Example 6, humanized mice with whole huPBMC
[7] = post 20 days of in vitro culture in the presence of PAM and IL-2

Row | Compound | effect on cytolytic activity of Vγ9Vδ2-T cells against EBV-LCL [1] | mice died within 100 days ([2]; 10 mg/kg i.p. day 0, 7, 14, 21, 28, 1 out of 8 mice, all PBS mice died) [%] | mice with subcutaneous tumor growth within 100 days ([2]; 10 mg/kg i.p. day 0, 7, 14, 21, 28, 3 out of 8 mice) [%] | frequency of Vγ9Vδ2-T cells in the peripheral blood ([2]; 10 mg/kg i.p., vs PBS) | persistence of Vγ9Vδ2-T cells in the peripheral blood ([2]; EBV-LCL-grafted humanized mice, pamidronate-treated) | survival ([2]; Example 5, PAM n=8 vs PBS n=7) | tumor incidence [2, 5] | tumor volume [2, 5] | tumor occurrence [2, 6] | tumor volume [2, 6] | survival ([2]; Example 6, humanized mice with whole huPBMC, n=12) | tumor metastasis in other organs at necropsy ([2]; day 100, surviving 7 mice) | activation and expansion of Vγ9Vδ2-T cells ([3]; huPBMC, PAM 9 μg/mL, rhIL-2 from day 3) | expansion of Vγ9Vδ2-T cells (mean) [3, 7] [fold] | expansion of Vγ9Vδ2-T cells (range) [3, 7] | percentage of Vγ9Vδ2-T cells within the PBMCs (mean) [3, 7] [%] | percentage of Vγ9Vδ2-T cells within the PBMCs (range) ([3]; post 20 days of in vitro culture in the presence of PAM and IL-2, baseline 1-5% (mean 3%), 4 experiments) | effects on survival, tumor occurrence and tumor volume [4]
1 | Bcl-2: granzyme B inactivator Bcl-2 (R&D Systems) | strongly inhibited | – | – | – | – | – | – | – | – | – | – | – | – | – | – | – | – | –
2 | NCCC(O)(P(=O)(O)O)P(=O)(O)O [pamidronate] | – | 12.5 | 37.5 | significantly increased | up to 98 days | significantly prolonged | significantly lower tumor incidence | reduced tumor volume | reduced tumor occurrence | decreased tumor volume | significantly prolonged survival | failed to show any evidence of tumor metastasis | induced selective activation and expansion | 198 | 156-309 fold | 82 | 67-95% | had no such effects
3 | C/C=C/[C@H]1O[C@@](O)([C@@H](C)[C@H](O)[C@H](C)[C@H]2OC(=O)/C(OC)=C/C(C)=C/[C@@H](C)[C@@H](O)[C@@H](CC)[C@@H](O)[C@H](C)C/C(C)=C/C=C/[C@@H]2OC)C[C@@H](O[C@H]2C[C@@H](O)[C@H](OC(N)=O)[C@@H](C)O2)[C@@H]1C [CMA, concanamycin A] | strongly inhibited | – | – | – | – | – | – | – | – | – | – | – | – | – | – | – | – | –
